Key:
JNK1 [1] = target: T1, JNK1 (Homo sapiens, UniProt P45983); test: 33PanQinase enzyme assay, JNK1; format: biochemical; design: purchased ProQinase GmbH, Freiburg, Germany (33PanQinase Assay Service); settings: ratio IC50(JNK1)/IC50(MKK4)
Outline: (§1)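 33Pi incorporation, read by microplate scintillation counting, measured kinase activity after 60 min at 30 °C. Reactions were quenched with 2% (v/v) H3PO4 and washed with 0.9% NaCl. IC50 derived by least-squares fitting; single doses reported as % residual activity.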
Target sequence in this assay (P45983 whole entry): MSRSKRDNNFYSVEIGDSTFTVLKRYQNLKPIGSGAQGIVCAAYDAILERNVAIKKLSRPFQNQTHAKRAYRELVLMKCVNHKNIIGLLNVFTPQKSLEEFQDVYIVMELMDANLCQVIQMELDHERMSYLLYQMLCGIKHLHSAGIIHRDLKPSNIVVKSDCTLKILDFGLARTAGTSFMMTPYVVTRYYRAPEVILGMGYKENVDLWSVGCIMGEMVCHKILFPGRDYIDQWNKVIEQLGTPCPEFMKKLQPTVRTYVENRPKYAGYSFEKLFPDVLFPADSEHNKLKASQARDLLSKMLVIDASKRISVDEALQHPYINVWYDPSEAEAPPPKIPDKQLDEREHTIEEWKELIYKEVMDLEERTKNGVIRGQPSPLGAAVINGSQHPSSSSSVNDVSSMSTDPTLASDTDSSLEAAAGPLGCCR

MKK7 [2] = target: T2, MKK7 (Homo sapiens, UniProt O14733); test: 33PanQinase enzyme assay, MKK7; format: biochemical; design: purchased ProQinase GmbH, Freiburg, Germany (33PanQinase Assay Service); settings: ratio IC50(MKK7)/IC50(MKK4)
T2 sequence (O14733 1-419): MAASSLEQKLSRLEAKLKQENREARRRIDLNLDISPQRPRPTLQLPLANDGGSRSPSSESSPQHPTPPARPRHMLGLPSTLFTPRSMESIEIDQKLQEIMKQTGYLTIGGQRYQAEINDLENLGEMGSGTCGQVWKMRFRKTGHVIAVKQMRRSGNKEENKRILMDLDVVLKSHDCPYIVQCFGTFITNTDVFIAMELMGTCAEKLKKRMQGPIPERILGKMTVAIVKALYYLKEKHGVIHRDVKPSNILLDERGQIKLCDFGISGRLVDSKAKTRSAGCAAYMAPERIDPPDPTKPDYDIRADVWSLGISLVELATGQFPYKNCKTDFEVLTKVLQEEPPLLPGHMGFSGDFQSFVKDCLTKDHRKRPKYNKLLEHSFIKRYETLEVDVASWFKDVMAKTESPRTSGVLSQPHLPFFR
Outline: as §1

BRaf = target: T3, BRaf (Homo sapiens, UniProt P15056); test: KINOMEscan competition binding assay, BRaf; settings: ratio PoC (off-target)/PoC (MKK4)
T3 construct: purchased ProQinase GmbH, Freiburg, Germany (33PanQinase Assay Service)
Outline: (§2)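 DNA-tagged kinases expressed in HEK-293 cells compete between immobilized ligand on blocked beads and test compound at 100 nM; kinase retained on beads quantified by qPCR of the tag.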

MKK4 [3] = target: T4, MKK4 (Homo sapiens, UniProt P45985); test: 33PanQinase enzyme assay, MKK4; format: biochemical; settings: assay 'IC50'; read-out: Potency MKK4 (IC50)
T4 construct: purchased ProQinase GmbH, Freiburg, Germany (33PanQinase Assay Service)
T4 sequence (P45985 1-399): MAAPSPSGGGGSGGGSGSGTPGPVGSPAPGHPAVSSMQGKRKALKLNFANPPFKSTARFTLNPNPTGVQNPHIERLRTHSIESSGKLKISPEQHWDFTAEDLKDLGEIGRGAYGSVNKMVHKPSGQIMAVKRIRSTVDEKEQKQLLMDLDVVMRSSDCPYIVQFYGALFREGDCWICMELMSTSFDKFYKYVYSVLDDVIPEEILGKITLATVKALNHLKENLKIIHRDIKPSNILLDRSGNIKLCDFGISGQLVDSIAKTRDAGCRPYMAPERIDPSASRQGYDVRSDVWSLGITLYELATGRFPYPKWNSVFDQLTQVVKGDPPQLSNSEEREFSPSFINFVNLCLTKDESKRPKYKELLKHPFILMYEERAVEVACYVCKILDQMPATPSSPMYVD
Outline: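 Inhibition measured as 33Pi transfer to substrate after a 60-min, 30 °C reaction, acid-stopped and scintillation-counted.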

JNK1 [4] = target: T1, JNK1; test: KINOMEscan competition binding assay, JNK1; design: M1/Q384; host or cells: HEK-293; settings: ratio PoC (off-target)/PoC (MKK4)
Outline: as §2
Target sequence in this assay (P45983 1-384 isoform P45983-2): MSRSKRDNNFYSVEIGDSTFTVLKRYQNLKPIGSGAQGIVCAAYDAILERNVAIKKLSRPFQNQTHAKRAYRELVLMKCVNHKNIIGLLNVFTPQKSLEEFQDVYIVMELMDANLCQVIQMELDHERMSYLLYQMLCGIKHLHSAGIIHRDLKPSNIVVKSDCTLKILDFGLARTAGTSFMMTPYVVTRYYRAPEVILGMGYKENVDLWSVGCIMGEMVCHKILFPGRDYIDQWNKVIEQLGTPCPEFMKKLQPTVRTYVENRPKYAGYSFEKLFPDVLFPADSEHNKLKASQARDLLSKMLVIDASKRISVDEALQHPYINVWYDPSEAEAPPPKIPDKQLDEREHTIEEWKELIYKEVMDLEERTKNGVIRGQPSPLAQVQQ

MKK4 [5] = target: T5, MKK4 (Homo sapiens, UniProt P45985); test: KINOMEscan competition binding assay, MKK4; settings: residual percent of control binding (PoC) at 100 nM
T5 construct: S84/D399; host or cells: HEK-293
T5 sequence (P45985 84-399): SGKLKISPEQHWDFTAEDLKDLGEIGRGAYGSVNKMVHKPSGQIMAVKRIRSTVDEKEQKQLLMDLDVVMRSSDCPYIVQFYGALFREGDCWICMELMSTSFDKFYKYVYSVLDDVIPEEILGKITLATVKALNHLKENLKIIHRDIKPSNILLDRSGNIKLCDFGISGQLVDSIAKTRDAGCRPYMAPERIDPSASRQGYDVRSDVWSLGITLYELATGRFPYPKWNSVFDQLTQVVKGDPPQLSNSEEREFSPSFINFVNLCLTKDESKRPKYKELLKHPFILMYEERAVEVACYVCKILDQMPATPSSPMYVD
Outline: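 Tested at 100 nM and reported as percent of control binding (PoC). MKK4 was produced in HEK-293 cells and DNA-tagged. Displacement from ligand-coated, blocked beads was read by qPCR of eluted kinase.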

MKK7 [6] = target: T2, MKK7; test: KINOMEscan competition binding assay, MKK7; design: M1/R419; host or cells: HEK-293; settings: ratio PoC (off-target)/PoC (MKK4)
Outline: as §2

T3 sequence (P15056 whole entry, species assumed): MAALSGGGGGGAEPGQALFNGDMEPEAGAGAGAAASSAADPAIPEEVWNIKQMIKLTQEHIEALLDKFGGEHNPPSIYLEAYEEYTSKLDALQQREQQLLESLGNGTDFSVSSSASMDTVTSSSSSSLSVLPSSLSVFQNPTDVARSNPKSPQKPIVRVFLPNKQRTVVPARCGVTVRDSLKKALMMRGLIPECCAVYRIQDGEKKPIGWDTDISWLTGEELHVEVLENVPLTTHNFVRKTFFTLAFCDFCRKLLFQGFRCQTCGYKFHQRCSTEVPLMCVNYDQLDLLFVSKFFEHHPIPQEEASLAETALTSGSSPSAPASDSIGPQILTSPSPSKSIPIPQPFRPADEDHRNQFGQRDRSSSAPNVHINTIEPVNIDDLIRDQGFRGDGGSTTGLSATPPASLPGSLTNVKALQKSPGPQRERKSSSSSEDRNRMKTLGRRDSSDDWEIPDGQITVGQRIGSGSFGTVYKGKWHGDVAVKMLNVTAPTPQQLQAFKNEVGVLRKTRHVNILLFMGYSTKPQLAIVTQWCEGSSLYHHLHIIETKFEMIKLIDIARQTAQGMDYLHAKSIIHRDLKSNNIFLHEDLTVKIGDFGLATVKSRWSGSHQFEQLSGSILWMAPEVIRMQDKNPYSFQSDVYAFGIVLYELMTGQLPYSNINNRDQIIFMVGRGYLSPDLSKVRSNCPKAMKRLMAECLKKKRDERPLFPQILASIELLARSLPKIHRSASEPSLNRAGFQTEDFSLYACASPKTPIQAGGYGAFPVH

Row | SMILES | Selectivity JNK1, IC50(off-target)/IC50(MKK4) (JNK1 [1]) | Selectivity IVIKK7, IC50(off-target)/IC50(MKK4) (MKK7 [2]) | selectivity based on % Ctrl @100 nM vs. Braf (BRaf) | IC50 (MKK4 [3]) | selectivity based on % Ctrl @100 nM vs. JNK1 (JNK1 [4]) | MKK4 [% Ctrl @ 100 nM (MKK4 [5]) | selectivity based on % Ctrl @100 nM vs. MKK7 (MKK7 [6])
1 | CCCS(=O)(=O)Nc1ccc(F)c(C(=O)c2c[nH]c3ncc(-c4csc(SC)n4)cc23)c1F [Example 87, N-(2,4-difluoro-3-(5-(2-(methylthio)thiazol-4-yl)-1H-pyrrolo[2,3-b]pyridine-3-carbonyl)phenyl)propane-1-sulfonamide] | ◯ (3 ≥ IC50(off-target)/IC50(MKK4)) | ◯ (3 ≥ IC50(off-target)/IC50(MKK4)) | ◯ (3 ≥ Ratio) | > 10 µM | ◯ (3 ≥ Ratio) | ◯ (30 ≤ PoC) | ◯ (3 ≥ Ratio)
2 | CNc1ncc(-c2cnc3[nH]cc(C(=O)c4ccc(F)c(NS(=O)(=O)CCC(F)(F)F)c4F)c3c2)cn1 [Example 177, N-(2,6-difluoro-3-(5-(2-(methylamino)pyrimidin-5-yl)-1H-pyrrolo[2,3-b]pyridine-3-carbonyl)phenyl)-3,3,3-trifluoropropane-1-sulfonamide] | +++ (IC50(off-target)/IC50(MKK4) > 100) | +++ (IC50(off-target)/IC50(MKK4) > 100) | +++ (Ratio > 100) | < 0.1 µM | +++ (Ratio > 100) | +++ (PoC < 1) | +++ (Ratio > 100)
3 | CCCS(=O)(=O)Nc1ccc(F)c(C(=O)c2c[nH]c3ncc(C4CCC4)cc23)c1F [Example 123, N-(3-(5-cyclobutyl-1-pyrrolo[2,3-b]pyridine-3-carbonyl)-2,4-difluorophenyl)propane-1-sulfonamide] | ◯ (3 ≥ IC50(off-target)/IC50(MKK4)) | +++ (IC50(off-target)/IC50(MKK4) > 100) | ++ (100 ≥ ratio > 10) | 0.1 to 1 µM | +++ (Ratio > 100) | +++ (PoC < 1) | +++ (Ratio > 100)
4 | CCCS(=O)(=O)Nc1ccc(F)c(C(=O)c2c[nH]c3ncc(-c4cccnc4)cc23)c1F [Example 58] | ◯ (3 ≥ IC50(off-target)/IC50(MKK4)) | ++ (100 ≥ IC50(off-target)/IC50(MKK4) > 10) | ++ (100 ≥ ratio > 10) | 0.1 to 1 µM | +++ (Ratio > 100) | +++ (PoC < 1) | +++ (Ratio > 100)
5 | CCCS(=O)(=O)Nc1ccc(F)c(C(=O)c2c[nH]c3ncc(-c4nc[nH]n4)cc23)c1F [Example 85, N-(3-(5-(1H-1,2,4-triazol-3-yl)-1H-pyrrolo[2,3-b]pyridine-3-carbonyl)-2,4-difluorophenyl)propane-1-sulfonamide] | ◯ (3 ≥ IC50(off-target)/IC50(MKK4)) | ++ (100 ≥ IC50(off-target)/IC50(MKK4) > 10) | ◯ (3 ≥ Ratio) | 1 to 10 µM | ++ (100 ≥ ratio > 10) | + (3 ≤ PoC < 30) | ++ (100 ≥ ratio > 10)
6 | CS(=O)(=O)Nc1c(F)ccc(C(=O)c2c[nH]c3ncc(-c4cccnc4)cc23)c1F [Example 228, N-(2,6-difluoro-3-(5-(pyridin-3-yl)-1H-pyrrolo[2,3-b]pyridine-3-carbonyl)phenyl)methanesulfonamide] | ++ (100 ≥ IC50(off-target)/IC50(MKK4) > 10) | ++ (100 ≥ IC50(off-target)/IC50(MKK4) > 10) | +++ (Ratio > 100) | 0.1 to 1 µM | +++ (Ratio > 100) | +++ (PoC < 1) | +++ (Ratio > 100)
7 | CCCS(=O)(=O)Nc1ccc(F)c(C(=O)c2c[nH]c3ncc(-c4cc[nH]c4)cc23)c1F [Example 100, N-(3-(5-(1H-pyrrol-3-yl)-1H-pyrrolo[2,3-b]pyridine-3-carbonyl)-2,4-difluorophenyl)propane-1-sulfonamide] | ◯ (3 ≥ IC50(off-target)/IC50(MKK4)) | ◯ (3 ≥ IC50(off-target)/IC50(MKK4)) | ◯ (3 ≥ Ratio) | > 10 µM | ++ (100 ≥ ratio > 10) | + (3 ≤ PoC < 30) | ++ (100 ≥ ratio > 10)
8 | CCCS(=O)(=O)Nc1ccc(F)c(C(=O)c2c[nH]c3ncc(-c4c[nH]c(=O)cn4)cc23)c1F [Example 88, N-(2,4-difluoro-3-(5-(5-oxo-4,5-dihydropyrazin-2-yl)-1H-pyrrolo[2,3-b]pyridine-3-carbonyl)phenyl)propane-1-sulfonamide] | ◯ (3 ≥ IC50(off-target)/IC50(MKK4)) | ++ (100 ≥ IC50(off-target)/IC50(MKK4) > 10) | + (10 ≥ ratio > 3) | 0.1 to 1 µM | +++ (Ratio > 100) | +++ (PoC < 1) | +++ (Ratio > 100)
9 | CCCS(=O)(=O)Nc1ccc(F)c(C(=O)c2c[nH]c3ncc(-c4nncs4)cc23)c1F [Example 86, N-(3-(5-(1,3,4-thiadiazol-2-yl)-1H-pyrrolo[2,3-b]pyridine-3-carbonyl)-2,4-difluorophenyl)propane-1-sulfonamide] | ◯ (3 ≥ IC50(off-target)/IC50(MKK4)) | ++ (100 ≥ IC50(off-target)/IC50(MKK4) > 10) | ◯ (3 ≥ Ratio) | 1 to 10 µM | ++ (100 ≥ ratio > 10) | + (3 ≤ PoC < 30) | ++ (100 ≥ ratio > 10)
10 | CCCS(=O)(=O)Nc1ccc(F)c(C(=O)c2c[nH]c3ncc(C4=CCNCC4)cc23)c1F [Example 242] | ◯ (3 ≥ IC50(off-target)/IC50(MKK4)) | ++ (100 ≥ IC50(off-target)/IC50(MKK4) > 10) | ◯ (3 ≥ Ratio) | > 10 µM | + (10 ≥ ratio > 3) | + (3 ≤ PoC < 30) | + (10 ≥ ratio > 3)

From patent US11912701B2, “Protein kinase inhibitors for promoting liver regeneration or reducing or preventing hepatocyte death” (HEPAREGENIX GMBH, priority 2018, dated 2024)
